According to a melting point compilation (Tetko et al.; mined from patent text by program, amines drawn as free bases though some values may be those of a salt):

| Compound | melting point [°C] |
| --- | --- |
| O=C(Cc1c[nH]c2ccccc12)Nc1ccc(-n2nc(C3CC3)cc2C2CC2)cc1 | 158 to 164 |
| CCOC(=O)c1cc2cc(F)cc(Br)c2[nH]1 | 125 |
| COCCCc1ccc(CNC(=O)[C@@H](COC)NC(C)=O)cc1 | 105 to 107 |
| CCOC(=O)c1cn(-c2cccc(OC)c2)cn1 | 95 to 96 |
| Cn1cc(-c2ccccc2)c(=O)c(-c2cc(Cl)cc(Cl)c2)c1 | 131 to 135 |
| COc1ccc2[nH]c(C(=O)c3ccc(Cl)cc3)c(CC(=O)O)c2c1 | 200 to 204 |
| O=Cc1ccccc1Oc1ccc(Cl)cc1[N+](=O)[O-] | 100 to 101 |
| O=C(CCl)Nc1ccccn1 | 114 to 117 |
| c1ccc2c(OCCCCCCCCOc3cccc4ccccc34)cccc2c1 | 60 |
| C#CCOC(=O)c1ccccc1C1=NC(=O)C(C)(C(C)C)N1 (stereo not drawn) | 131 to 144 |
| CSc1ccc(C(=O)C(=O)c2ccc(Cl)c(Cl)c2)cc1 | 249 to 251 |
| O=C1COc2c1ccc1ccccc21 | 191 to 192 |
| C=CCOc1ccc(C(=O)C=Cc2cc(OC)c(C)c(OC)c2)cc1 | 143 to 144 |
| Oc1cccc2c(CCc3ccccc3)ccnc12 | 102 to 103 |
| CC1(C)CC(C)(C)CC(C)(NC=O)C1 | 104 to 106 |
| COc1cccc(O[C@@H]2COc3ccc(OCc4ccccn4)cc3[C@@H]2O)c1 (relative stereo) | 105 to 107 |
| CNCC1Cc2cc(F)cc(-c3ccccc3C)c2O1 (stereo not drawn) | 123 to 124 |
| CCCCCC1=CCC(c2cc(F)c(C(=O)O)c(F)c2)C=C1 (stereo not drawn) | 65 |
| COc1ccc(-c2cc(=O)n(Cc3ccc(F)cc3)nc2-c2ccc(OC)cc2)cc1 | 132 to 133 |
| CC(c1oc2ccccc2c(=O)c1-c1cccc(F)c1)n1nc(-c2cccc(N(C)C)c2)c2c(N)ncnc21 (stereo not drawn) | 218 to 220 |
| O=C(CCSC(=O)c1ccccc1)N[C@@H](Cc1c[nH]cn1)C(=O)O | 170 to 171 |
| COc1cc(NC(=O)Nc2ccccc2)ccn1 | 127 to 129 |
| OCc1ccc(/C=C/c2ccc(OC(F)(F)F)cc2)cc1 | 161 to 163 |
| Cc1oc(-c2ccc(-c3ccccc3)cc2)nc1CCOc1ccc(OC(C)(C)C(=O)O)cc1 | 123 to 124 |
| CCOC(=O)CC1(O)C(=O)Nc2ccc(F)cc21 (stereo not drawn) | 133 to 135 |
| Cn1nnnc1-c1cn(C)c2cc(O)ccc2c1=O | > 320 |

| Compound | melting point [°C] |
| --- | --- |
| CCCCc1cccnc1NC=C(C#N)C(=O)OCC | 98.5 to 99.5 |
| Oc1ccc(Oc2cnc3cc(F)ccc3n2)cc1 | 78 to 79 |
| CS(=O)(=O)c1ccc(-c2cnn(CC(F)(F)F)c(=O)c2OC2CCCCC2)cc1 | 129 to 130 |
| CC(C)(C=O)C(=O)Nc1ccc(Cl)cc1 | 99 to 100 |
| COc1ccccc1OCC1(COc2ccccc2OC)NCCS1 | 86 to 88 |
| CCCCOc1nc(N)c2[nH]c(=O)n(CCCCN(Cc3cccc(CC(=O)O)c3)CC(C)(C)CN(C)C)c2n1 | 189 to 190 |
| CCC(O)(CC)Cc1ccc(N)cc1 | 85 to 86 |
| C[C@@H]1C[C@@H](O)CC(C)(C)C1=O | 49 to 50 |
| OC(CCc1cccnc1)COc1ccc(OCc2ccccc2)cc1 (stereo not drawn) | 79 to 82 |
| Cc1cnc2n1-c1ccc(Cl)cc1C(c1ccccc1)=NC2 | 190 to 191 |
| O=S1(=O)N=CN(C2CCCCCCC2)c2cc(Cl)ccc21 | 209 to 211 |
| CC(C)(C)CC(C)(C)NC(=O)C1=C(c2ccccc2)C(c2ccccc2)OC1=O (stereo not drawn) | 110 to 111 |
| Fc1cc2c(Nc3ccc(F)c(C(F)(F)F)c3)ncnc2cn1 | 247 to 249 |
| CCOC(=O)c1ccc(Cc2ccccc2)cn1 | 109 to 111 |
| CC1(c2ccccc2)OC(=O)COC1=O (stereo not drawn) | 90 to 91 |
| Cc1cccc(NS(=O)(=O)c2ccc(OCc3nc(-c4ccccc4)oc3C)cc2)c1C(=O)O | 167 to 170 |
| CCOCc1nc2c(N)nc3cc(N4CCOCC4)ccc3c2n1CCCOC(C)C | 161 to 162 |
| CC(CCCC(=O)O)(c1ccc(OCc2ccc3ccccc3n2)cc1)c1ccc(OCc2ccc3ccccc3n2)cc1 | 87 to 89 |
| CCCCn1c(=O)c2c(ncn2S(=O)(=O)c2cccc([N+](=O)[O-])c2)n(CCCC)c1=O | 178 to 179 |
| Cc1c(Cl)nc2sc(SCc3ccccc3)nn2c1=O | 102 to 104 |
| O=Cc1ccc(OCC(F)(F)F)c(O)c1 | 133 to 135 |
| CC(=O)OC[C@H]1OCC(=O)[C@@H](OC(C)=O)[C@@H]1OC(C)=O | 86 to 88 |
| CCOC(=O)c1ccccc1-n1c(=O)c2ccccc2n(CCCCBr)c1=O | 101 to 102 |
| O=C(NCc1cccc(OCCOc2nc[nH]n2)c1)c1nc2ccc(F)c(F)c2c(=O)[nH]1 | 205 to 207 |
| CCOC(=O)Cc1nc(-c2ccccc2)oc1C(C)C | 37 to 38 |
| CNc1ccc(C(=O)Nc2c(C)cccc2C)cn1 | 207 to 209 |

| Compound | melting point [°C] |
| --- | --- |
| COCN1C(C)=C(C(=O)O)[C@H](c2cccc([N+](=O)[O-])c2)C(C(=O)OCOC(=O)C(C)(C)C)=C1C | 84 to 85 |
| COC(=O)CCCCCCCCCCCO | 33.5 to 35 |
| Nc1cc(C(=O)O)cc(S(N)(=O)=O)c1Sc1ccccc1 | 285 |
| CCN(CC)c1ccc2cc(C(=O)O)c(=O)oc2c1 | 227 to 229 |
| COc1cc(N(C(=O)C[C@H](N)C(=O)O)S(=O)(=O)c2ccc3c(ccn3C)c2)cc(OC)c1OC | 156 to 159 |
| CCc1ccc(C(=O)N[C@H](Cc2ccccc2)C(=O)O)cc1 | 166 |
| Cc1cc2c(c(C(C)(C)C)c1)OC(=O)C2c1ccc2c(c1)c1ccccc1n2C (stereo not drawn) | 84 to 90 |
| CCOc1ccc2nc(CN3CCN(c4ccc(Cl)cc4Cl)CC3)cn2c1 | 171 to 172 |
| Cc1cc(Cl)c(C(=O)c2cc(C)c(C)cc2Cl)cc1C | 148 to 149 |
| O=C1c2ccccc2-c2c1c1ccccc1c(=O)n2CCCNS(=O)(=O)c1ccccc1 | 216 to 218 |
| CCOC(=O)C(=O)Nc1sc(-c2ccccc2)cc1[N+](=O)[O-] | 139 to 144 |
| COc1cc2c(cc1OC)-c1c(N3CCNCC3)nc3ccccc3c1C2=O | 135 to 136 |
| CN1C(=O)CN=C(c2ccccc2F)c2cc(NC(=O)NC(C)(C)CO)ccc21 | 162 to 176 |
| CCCOc1ccc(S(=O)(=O)CC)cc1-c1nc2c(CC)nn(C[C@@H]3CCCN3C(=O)OC(C)(C)C)c2c(=O)[nH]1 | 170 to 172 |
| Cc1cccnc1-n1c(S(=O)Cc2ccccc2N(C)C)nc2c1CCC2 (stereo not drawn) | 119 to 120 |
| COCc1ccc(N=C2NCCN2)c(Cl)c1 | 108 to 110 |
| CCC(CC)c1nn(-c2ccc(C(F)(F)F)cn2)cc1CCCOc1ccccc1CC(=O)O | 65 to 66 |
| CN(C)C(=S)SC(C[N+](=O)[O-])c1ccc(Br)cc1 (stereo not drawn) | 79 to 81 |
| COc1ccc2[nH]cc(CCN=c3sc4ccccc4s3)c2c1 | 139 to 140 |
| CC(C)(C)OC(=O)N1CCCC1(Cc1ccc(Br)cc1)C(=O)O (stereo not drawn) | 144 |
| COC(=O)c1ccc(Cc2c[nH]c3ccc([N+](=O)[O-])cc23)c(OC)c1 | 153 to 155 |
| CS(=O)(=O)c1ccc(-n2nc(CNC(=O)NC3CCCCCC3)cc2-c2ccccc2)cc1 | 104 to 110 |
| CCCCCCCCCCCCCCCCNc1ccc(C(=O)NS(=O)(=O)c2ccc(N)cc2)cc1 | 193 to 196 |
| CC(=Cc1c(-c2ccccc2)nc2sc(C)nn12)C(=O)O | 298 to 300 |
| CN(C)C(=O)Cn1c(-c2ccc(Cl)cc2)nc2cccnc21 | 212 to 213 |
| CCc1cnc2c(NC(=O)c3c(Cl)cccc3Cl)cccc2c1CCO | 180 to 182 |

| Compound | melting point [°C] |
| --- | --- |
| CCC(=O)NC[C@H]1CN(c2ccc3c(c2)CCCc2cn[nH]c2-3)C(=O)O1 | 233 to 235 |
| CCCn1c(=O)c2ccc(NC(=O)CC3CCCC3)cc2n1Cc1ccc(C(=O)O)cc1OC | 122 to 125 |
| CC1=NC2(O)c3cc(-c4ccc(C(F)(F)F)cc4)ccc3CC2S1 (stereo not drawn) | 213 to 217 |
| O=Cc1ccc(OCCN2CCN(c3cc(Cl)nnc3Cl)CC2)cc1 | 110 to 112 |
| O=c1oc2ccccc2c(O)c1[N+](=O)[O-] | 174 |
| COC(=O)c1ccc(NN=CC(=O)OCCC#N)cc1S(N)(=O)=O | 188 to 189 |
| COc1nc2ncnn2c(N2CCC(C)CC2)c1-c1ccc(F)cc1Cl | 186 |
| COc1cc(OC)c(-c2nncn2CC(C)C)cc1C=CC(=O)c1ccc(S(N)(=O)=O)cc1 | > 240 |
| CCC(CC)C(NS(=O)(=O)c1ccc(Cl)s1)c1ccnn1Cc1ccc(O)cc1 (stereo not drawn) | 90 to 92 |
| CCOC(=O)/C=C/c1ccc(OCc2nc(C)c(C)nc2C)c(OC)c1 | 112 |
| CN(C)c1cccc2c(S(=O)(=O)NCC(=O)N3CCC[C@H]3C(=O)OC(C)(C)C)cccc12 | 60 to 67 |
| CN1CCCCC1CCc1ccccc1NC(=O)c1ccc(N)cc1 (stereo not drawn) | 147 to 148 |
| O=C(O)C1=Cc2cc(Br)ccc2S(=O)(=O)CC1 | 290 to 300 |
| COc1ccc(CCC2COC(Cn3ccnc3)(c3ccc(Cl)cc3Cl)O2)cc1 (stereo not drawn) | 131 |
| O=C(Nc1ccc(-n2nc(C(F)(F)F)cc2C(F)(F)F)cc1F)c1ccc(F)cc1F | 66 to 67 |
| Cc1cc(NC(=O)N(CC(C)C)CC(C)C)cc(C)c1S(=O)(=O)C[N+](=O)[O-] | 153 to 155 |
| O=C1OC(CCI)C(O)=C1O (stereo not drawn) | 150 to 151 |
| CCCCCCc1ccc(O)c(C(=O)O)c1 | 83 to 84 |
| CC(=O)Nc1nc(C(N)=O)cs1 | > 250 |
| CC(C)(C)NCC(O)COc1ccc(-c2noc3sccc23)cc1 (stereo not drawn) | 118 |
| CNC(=O)c1cccc(C)c1Nc1nc(Nc2ccc3c(c2)C(=O)NCCC3)ncc1Cl | 259 |
| COc1cccc(C(=O)C=Cc2ccc(OC)cc2OC)c1 | 75.6 to 78.9 |
| CCn1c(C)nc2cc(S(C)(=O)=O)c(Cl)c(N)c21 | 179 to 186 |
| OCCNc1nc(N2CCNCC2)nc2c1SCCC2 | 116 to 120 |
| O=C(O)Cc1ccc(-c2ccc(F)cc2)c(F)c1 | 144 to 146 |
